Reference: ChEMBL document CHEMBL1201862, “PubChem BioAssay data set” (2004)
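48-hour exposure; five concentrations; linearly interpolated endpoints. The concentration for 50% growth inhibition is given as GI50.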 Activity calls are given as the source filed them. No stated cut-off is given here; in the data, active = GI50 up to about 1.1 µM and inactive = higher.

Tests used:
Test in all cases: inhibition of tumour cell growth, NCI panel, 48 h
CCRF-CEM = tested on: CCRF-CEM
SNB-78 = tested on: SNB-78
DMS-273 = tested on: DMS-273
HOP-62 = tested on: HOP-62
UO-31 = tested on: UO-31
EKVX = tested on: EKVX
786-0 = tested on: 786-0
KM-20L2 = tested on: KM-20L2
SK-MEL-2 = tested on: SK-MEL-2
RPMI-8226 = tested on: RPMI-8226
HT-29 = tested on: HT-29
NCI-H522 = tested on: NCI-H522
HCT-15 = tested on: HCT-15
SR = tested on: SR
HCC 2998 = tested on: HCC 2998
DLD-1 = tested on: DLD-1
LOX IMVI = tested on: LOX IMVI
SF-539 = tested on: SF-539
U-251 = tested on: U-251
K562 = tested on: K562
NCI-H460 = tested on: NCI-H460
NCI-H226 = tested on: NCI-H226
M19-MEL = tested on: M19-MEL
HCT-116 = tested on: HCT-116
SW-620 = tested on: SW-620
HOP-18 = tested on: HOP-18
CAKI-1 = tested on: CAKI-1
NCI-H23 = tested on: NCI-H23
SK-OV-3 = tested on: SK-OV-3
A498 = tested on: A498
SF-295 = tested on: SF-295
Malme-3M = tested on: Malme-3M
SNB-75 = tested on: SNB-75
HL-60 = tested on: HL-60
A549 = tested on: A549
KM12 = tested on: KM12
M14 = tested on: M14
MOLT-4 = tested on: MOLT-4
SNB-19 = tested on: SNB-19
OVCAR-8 = tested on: OVCAR-8
IGROV-1 = tested on: IGROV-1
SN12C = tested on: SN12C
TK-10 = tested on: TK-10
OVCAR-4 = tested on: OVCAR-4
COLO 205 = tested on: COLO 205
UACC-62 = tested on: UACC-62
UACC-257 = tested on: UACC-257
SK-MEL-5 = tested on: SK-MEL-5
ACHN = tested on: ACHN
OVCAR-3 = tested on: OVCAR-3
OVCAR-5 = tested on: OVCAR-5
DMS-114 = tested on: DMS-114
SK-MEL-28 = tested on: SK-MEL-28
LXFL 529 = tested on: LXFL 529
RXF 393 = tested on: RXF 393
HOP-92 = tested on: HOP-92
SF-268 = tested on: SF-268

Structure (SMILES): O=Cc1ccc2c(c1I)OCO2
- GI50 (CCRF-CEM): > 100 µM (inactive)
- GI50 (SNB-78): > 100 µM (inactive)
- GI50 (DMS-273): > 100 µM (inactive)
- GI50 (HOP-62): > 100 µM (inactive)
- GI50 (UO-31): > 100 µM (inactive)
- GI50 (EKVX): > 100 µM (inactive)
- GI50 (786-0): > 100 µM (inactive)
- GI50 (KM-20L2): > 100 µM (inactive)
- GI50 (SK-MEL-2): > 100 µM (inactive)
- GI50 (RPMI-8226): > 100 µM (inactive)
- GI50 (HT-29): > 100 µM (inactive)
- GI50 (NCI-H522): > 100 µM (inactive)
- GI50 (HCT-15): > 100 µM
- GI50 (SR): > 100 µM (inactive)
- GI50 (HCC 2998): > 100 µM (inactive)
- GI50 (DLD-1): > 100 µM (inactive)
- GI50 (LOX IMVI): > 100 µM (inactive)
- GI50 (SF-539): > 100 µM (inactive)
- GI50 (U-251): > 100 µM (inactive)
- GI50 (K562): > 100 µM (inactive)
- GI50 (NCI-H460): > 100 µM (inactive)
- GI50 (NCI-H226): > 100 µM (inactive)
- GI50 (M19-MEL): > 100 µM (inactive)
- GI50 (HCT-116): > 100 µM (inactive)
- GI50 (SW-620): > 100 µM (inactive)
- GI50 (HOP-18): > 100 µM (inactive)
- GI50 (CAKI-1): > 100 µM (inactive)
- GI50 (NCI-H23): > 100 µM (inactive)
- GI50 (SK-OV-3): > 100 µM (inactive)
- GI50 (A498): > 100 µM (inactive)
- GI50 (SF-295): > 100 µM (inactive)
- GI50 (Malme-3M): > 100 µM (inactive)
- GI50 (SNB-75): > 100 µM (inactive)
- GI50 (HL-60): > 100 µM (inactive)
- GI50 (A549): > 100 µM (inactive)
- GI50 (KM12): > 100 µM (inactive)
- GI50 (M14): > 100 µM (inactive)
- GI50 (MOLT-4): > 100 µM (inactive)
- GI50 (SNB-19): > 100 µM (inactive)
- GI50 (OVCAR-8): > 100 µM (inactive)
- GI50 (IGROV-1): > 100 µM (inactive)
- GI50 (SN12C): > 100 µM (inactive)
- GI50 (TK-10): > 100 µM (inactive)
- GI50 (OVCAR-4): > 100 µM (inactive)
- GI50 (COLO 205): > 100 µM (inactive)
- GI50 (UACC-62): > 100 µM (inactive)
- GI50 (UACC-257): > 100 µM (inactive)
- GI50 (SK-MEL-5): > 100 µM (inactive)
- GI50 (ACHN): > 100 µM (inactive)
- GI50 (OVCAR-3): > 100 µM (inactive)
- GI50 (OVCAR-5): > 100 µM (inactive)

Structure (SMILES): COc1ccc(CN2CCC/C=C/CC(Cl)(Cl)C2=O)cc1
- GI50 (CCRF-CEM): 35.5 µM (inactive)
- GI50 (DMS-273): 38.8 µM (inactive)
- GI50 (HOP-62): 50.9 µM (inactive)
- GI50 (UO-31): 21.2 µM (inactive)
- GI50 (786-0): 35.8 µM (inactive)
- GI50 (DMS-114): 24.7 µM (inactive)
- GI50 (KM-20L2): 49.4 µM (inactive)
- GI50 (SK-MEL-28): 46.7 µM (inactive)
- GI50 (SK-MEL-2): 19.8 µM (inactive)
- GI50 (RPMI-8226): 24.3 µM (inactive)
- GI50 (HT-29): 35.8 µM (inactive)
- GI50 (NCI-H522): 19.8 µM (inactive)
- GI50 (HCT-15): 34.2 µM
- GI50 (SR): 24.1 µM (inactive)
- GI50 (HCC 2998): 35.3 µM (inactive)
- GI50 (DLD-1): 31.6 µM (inactive)
- GI50 (LOX IMVI): 39.3 µM (inactive)
- GI50 (SF-539): 33.6 µM (inactive)
- GI50 (U-251): 34.1 µM (inactive)
- GI50 (K562): 35.6 µM (inactive)
- GI50 (LXFL 529): 31.4 µM (inactive)
- GI50 (NCI-H460): 29.4 µM (inactive)
- GI50 (RXF 393): 17 µM (inactive)
- GI50 (M19-MEL): 29.2 µM (inactive)
- GI50 (HCT-116): 31.3 µM (inactive)
- GI50 (SW-620): 49.4 µM (inactive)
- GI50 (HOP-18): 56.6 µM (inactive)
- GI50 (CAKI-1): 38.4 µM (inactive)
- GI50 (NCI-H23): 27.2 µM (inactive)
- GI50 (SK-OV-3): 27.9 µM (inactive)
- GI50 (A498): 19.2 µM (inactive)
- GI50 (HOP-92): 14.5 µM (inactive)
- GI50 (SF-295): 20.5 µM (inactive)
- GI50 (Malme-3M): 23.8 µM (inactive)
- GI50 (SNB-75): 15.1 µM (inactive)
- GI50 (HL-60): 28.2 µM (inactive)
- GI50 (A549): 35 µM (inactive)
- GI50 (KM12): 36.6 µM (inactive)
- GI50 (M14): 20.1 µM (inactive)
- GI50 (MOLT-4): 22.8 µM (inactive)
- GI50 (SNB-19): 25.2 µM (inactive)
- GI50 (OVCAR-8): 40 µM (inactive)
- GI50 (IGROV-1): 38.4 µM (inactive)
- GI50 (SN12C): 37.9 µM (inactive)
- GI50 (TK-10): 29.7 µM (inactive)
- GI50 (OVCAR-4): 23 µM (inactive)
- GI50 (COLO 205): 20.4 µM (inactive)
- GI50 (UACC-62): 43 µM (inactive)
- GI50 (SF-268): 26.6 µM (inactive)
- GI50 (SK-MEL-5): 18 µM (inactive)
- GI50 (ACHN): 21 µM (inactive)
- GI50 (OVCAR-3): 34.8 µM (inactive)
- GI50 (OVCAR-5): 42.7 µM (inactive)
